These results are taken from US20030091998A1, “Association of beta2-adrenergic receptor haplotypes with drug response” (priority 2000, published 2003).

In this assay the test system is asthma patients. Nature of the assay: In vivo FEV1 (bronchodilator) response to albuterol in asthma patients, by β2AR haplotype pair. Also on record: species or system human. How it is done: The patients in the asthma cohort were enrolled from an outpatient facility as described in detail elsewhere (Yan, L., Galinsky, R. E., Bernstein, J. A., Liggett, S. B. & Weinshilboum, R. M. (1999) Pharmacogenetics in Press). […] Forced expiratory volume in 1 second (FEV1) and forced vital capacity (FVC) were determined in triplicate. The predicted values for these measurements were calculated based on standard algorithms (Morris, J. F., Koski, A. & Johnson, L. C. (1971) Am Rev Respir Dis 103, 57-67).
The association between changes in % predicted FEV1 and haplotype pair was assessed by fitting an analysis of covariance model (ANCOVA) with terms for haplotype pair, sex and baseline severity. P-values from pairwise comparisons by haplotype pair were adjusted for multiple comparisons by applying the Holm-Sidak step-down procedure (Ludbrook, J. (1998) Clin and Exp Pharmacology & Physiology 25, 1032-1037.). […] In addition, the African-American asthma patients were excluded from the analysis due to the low number of individuals in this population group. For the analysis of individual SNPs, a similar ANCOVA model was employed with a discrete term for SNP genotype, and terms for sex and baseline severity. The Holm-Sidak step-down procedure was used to adjust the p-values from the individual SNP analyses for the number of tests performed.
Pairwise tests were made while correcting for multiple comparisons. […] For this analysis, a similar ANCOVA model as above was utilized. […] Since 0, 1 or 2 copies of these two haplotypes are present in our population as haplotype pairs 2/2, 2/4 and 4/4, a potential gene dose effect can be assessed by regression analysis.

Molecules are shown by their SMILES.

Turning to `CC(C)(C)NCC(O)c1ccc(O)c(CO)c1` (centres unmarked) [albuterol], where the note is “Caucasian asthma patients with β2AR haplotype pair 4/4, spirometry before and 30 min after inhalation of 180 μg albuterol by nebulization”, the “change % FEV1 (change in % predicted FEV1)” value is given as 8.53±1.78%. Further, the “bronchodilator response to albuterol” value is reported as “moderate bronchodilator response” (asthmatic patients with β2AR haplotype pair 2/6); “respond well” (asthmatic patients with β2AR haplotype pairs 2/2 and 4/6); “little to no response” (asthmatic patients with β2AR haplotype pairs 2/4 and 4/4). The “greater response of haplotype pair 2/2 than haplotype pair 4/4” value (in vivo FEV1 response, individuals with haplotype pair 2/2 vs 4/4 (FIG. 5)) is approximately 50%.
